From ChEMBL document CHEMBL5584258, “Synthesis, biosimulation and pharmacological evaluation of benzimidazole derivatives with antihypertensive multitarget effect” (Bioorg Med Chem Lett, 2024)
Activity calls are given as the source filed them. No cut-off for these calls is given here.

How the values were obtained:
[1] = species on record: Rattus norvegicus; test: Antagonist activity at AT1 Ang II receptor in noradrenaline sensitized rat aorta assessed as inhibition of angiotensin II induced contraction at 10 uM preincubated for 15 mins followed by angiotensin II addition; format: tissue-based; details: filed as antagonist
[2] = species on record: Rattus norvegicus; test: Antagonist activity at AT1 Ang II receptor in rat kidney assessed as reduction in angiotensin II induced renal perfusion pressure at 1 uM measured after […]; format: tissue-based; details: time […]
[3] = test system: Aorta; test: Vasorelaxant activity in rat aorta assessed as relaxation of noradrenaline-induced vascular contraction at 10 uM relative to control; format: functional; design: scale not given: the % may be the effect or the level left
[4] = test system: Aorta; test: Vasorelaxant activity in rat aorta assessed as relaxation of noradrenaline-induced vascular contraction at 10 uM incubated in presence of endothelium; format: functional, tissue-based
[5] = test system: Rattus norvegicus; test: Antihypertensive activity in spontaneously hypertensive rat assessed as reduction in systolic blood pressure at 5 mg/kg, ip measured for 6 hrs by tail-cuff method; format: functional, organism-based
[6] = test system: Aorta; test: Vasorelaxant activity in rat aorta assessed as relaxation of noradrenaline-induced vascular contraction at 10 uM incubated in absence of endothelium; format: functional, tissue-based
[7] = biological target: Voltage-gated L-type calcium channel (Rattus norvegicus, UniProt P22002+Q02485+P27732); test: Inhibition of L-type calcium channel in rat aorta assessed as vasorelaxation of thoracic aorta in presence of endothelium; format: tissue-based
[8] = test system: Rattus norvegicus; test: Antihypertensive activity in spontaneously hypertensive rat assessed as reduction in systolic blood pressure at 20 mg/kg, ip measured for 6 hrs by tail-cuff method; format: functional, organism-based

Activity [2]	SMILES	Activity [1]	other results
inactive	O=C(Nc1nnn[nH]1)c1ccc(CSc2nc3c(C(=O)O)cccc3[nH]2)cc1	Active	–
inactive	Cc1ccc2[nH]c(SCc3ccc(C(=O)Nc4nnn[nH]4)cc3)nc2c1	Active	–
inactive	O=C(Nc1nnn[nH]1)c1ccc(CSc2nc3cc([N+](=O)[O-])ccc3[nH]2)cc1	Active	–
inactive	O=C(O)c1ccc2[nH]c(SCc3ccc(C(=O)Nc4nnn[nH]4)cc3)nc2c1	Active	–
inactive	O=C(O)c1cccc2[nH]c(SCc3ccc(-c4ccccc4-c4nnn[nH]4)cc3)nc12	Active	Activity [3]: 57.3%; Activity [4]: Active
–	CCCc1nc2c(C)cc(-c3nc4ccccc4n3C)cc2n1Cc1ccc(-c2ccccc2C(=O)O)cc1	Active	Activity ([2]; filed as antagonist): Active; Activity [5]: Active
inactive	O=[N+]([O-])c1ccc2[nH]c(SCc3ccc(-c4ccccc4-c4nnn[nH]4)cc3)nc2c1	Active	–
–	O=C(O)c1ccc2[nH]c(SCc3ccc(-c4ccccc4-c4nnn[nH]4)cc3)nc2c1	Active	Activity [3]: 88.7%; Activity [4]: Active; Activity [6]: Active; IC50 [7]: 0.57 µM; Activity ([2]; filed as antagonist): Active; Activity [8]: Active
